Laboratory results taken from US20100075957A1, “AMINODIHYDROTHIAZINE DERIVATIVES SUBSTITUTED WITH A CYCLIC GROUP” (SHIONOGI & CO., LTD., priority 2007, published 2010).
Like-named read-outs stand apart in the source and are kept apart here.

Target: T1, Recombinant human BACE-1 (Homo sapiens, UniProt P56817)
T1 construct: purchased R&D Systems
Assay: Assay of β-secretase-inhibiting activity;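 further: substrate is a peptide carrying biotin and europium cryptate, after the enzyme reaction, Streptavidin-XL665 is added and incubated 1 h at 30 °C before fluorescence reading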
Assay type: biochemical
Settings: Recombinant human BACE-1 7.4 nM, substrate peptide 18 nM, pH 5.0, 30° C., 3 hours

[1] = time-resolved fluorescence ratio 665/620, read-out: IC50 values (50% inhibitory concentration against the enzymatic activity)

T1 sequence (P56817 46-501): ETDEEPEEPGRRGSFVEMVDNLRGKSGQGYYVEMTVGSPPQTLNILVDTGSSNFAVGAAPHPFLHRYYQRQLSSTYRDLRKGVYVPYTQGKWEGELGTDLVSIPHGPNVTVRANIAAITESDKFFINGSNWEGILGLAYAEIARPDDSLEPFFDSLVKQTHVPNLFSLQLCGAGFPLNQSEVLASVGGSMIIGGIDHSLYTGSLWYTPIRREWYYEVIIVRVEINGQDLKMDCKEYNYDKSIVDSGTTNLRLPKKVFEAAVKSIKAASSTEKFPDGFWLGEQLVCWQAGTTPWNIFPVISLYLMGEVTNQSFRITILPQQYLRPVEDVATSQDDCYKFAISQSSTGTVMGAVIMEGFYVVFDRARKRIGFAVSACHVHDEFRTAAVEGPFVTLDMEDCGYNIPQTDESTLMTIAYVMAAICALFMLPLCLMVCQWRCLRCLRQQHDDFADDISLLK

| SMILES | IC50 [1] | further results |
| --- | --- | --- |
| COc1cnc(C(=O)Nc2ccnc([C@]3(C)CCSC(N)=N3)c2)c(C)c1 [Compound 679] | ≤ 1000 nM |  |
| COCCCc1cnc(C(=O)Nc2ccc(F)c([C@]3(C)CCSC(N)=N3)c2)cn1 [Compound 118] | ≤ 1000 nM |  |
| Cc1cc(C(=O)Nc2cncc([C@]3(C)CCSC(N)=N3)c2)c(C)o1 [Compound 482] | ≤ 1000 nM |  |
| C[C@@]1(c2cc(NC(=O)c3cn4cc(C#N)nc4cn3)ccn2)CCSC(N)=N1 [Compound 699] | ≤ 1000 nM |  |
| Cc1cnc(C(=O)Nc2cc([C@]3(C)CCSC(N)=N3)c3oc(C)cc3c2)cn1 [Compound 468] |  | IC50 (Table 140, read-out: IC50): 20 nM |
| CC#CCOc1cnc(C(=O)Nc2cccc([C@]3(C)CC(C)(C)SC(N)=N3)c2)cn1 [Compound 695] | ≤ 1000 nM |  |
| COCCOc1cnc(C(=O)Nc2ccc(F)c([C@]3(C)CC(C)(C)SC(N)=N3)c2)cn1 [Compound 601] | ≤ 1000 nM |  |
| Cc1ncc(C(=O)Nc2ccc(F)c([C@]3(C)CCSC(N)=N3)c2)s1 [Compound 508] | ≤ 1000 nM | IC50 (Table 140, read-out: IC50): 40 nM |
| COCCOc1cnc(C(=O)Nc2ccnc([C@]3(C)CCSC(N)=N3)c2)cn1 [Compound 549] | ≤ 1000 nM |  |
| Cc1cc(C(=O)Nc2ccc(F)c([C@]3(C)CCSC(N)=N3)c2)nn1C [Compound 488] |  | IC50 (Table 140, read-out: IC50): 260 nM |
| C[C@@]1(c2cc(NC(=O)c3cnc(OCC4CCO4)cn3)ccc2F)CCSC(N)=N1 (stereo partly drawn) [Compound 672] | ≤ 1000 nM |  |
| C[C@@]1(c2cncc(NC(=O)c3sccc3Br)c2)CCSC(N)=N1 [Compound 515] | ≤ 1000 nM |  |
| Cc1cncc(C(=O)Nc2ccc(F)c([C@]3(C)CCSC(N)=N3)c2)n1 [Compound 585] |  | IC50 (Table 140, read-out: IC50): 60 nM |
| COCC#Cc1cnc(C(=O)Nc2ccc(F)c([C@]3(C)CCSC(N)=N3)c2)cn1 [Compound 116] | ≤ 1000 nM |  |
| C#Cc1cn2cc(C(=O)Nc3ccc(F)c([C@]4(C)CCSC(N)=N4)c3)ncc2n1 [Compound 698] | ≤ 1000 nM |  |
| C[C@@]1(c2cc(NC(=O)c3cnc(NCC(F)(F)F)cn3)ccc2F)CCSC(N)=N1 [Compound 702] | ≤ 1000 nM | IC50 (Table 141, read-out: IC50): 160 nM |
| Cc1csc(C(=O)Nc2ccc(F)c([C@]3(C)CCSC(N)=N3)c2)c1 [Compound 533] | ≤ 1000 nM |  |
| Cc1ccc(NC(=O)c2cnc(Cl)cn2)cc1C1(C)CCSC(N)=N1 (stereo not drawn) [Compound 141] |  | IC50 (Table 139, read-out: IC50): 120 nM |
| C[C@@]1(c2cc(NC(=O)c3ncc(Cl)cc3Cl)ccn2)CCSC(N)=N1 [Compound 677] | ≤ 1000 nM |  |
| C[C@@]1(c2cc(NC(=O)c3ccc(OCCO)cn3)ccc2F)CCSC(N)=N1 [Compound 114] |  | IC50 (Table 139, read-out: IC50): 160 nM |
| Cn1nc(C(F)(F)F)cc1C(=O)Nc1cccc([C@]2(C)CCSC(N)=N2)c1 [Compound 4] | ≤ 1000 nM |  |
| C[C@@]1(c2cc(NC(=O)c3cnc(OCCF)cn3)ccc2F)CCSC(N)=N1 [Compound 132] | ≤ 1000 nM |  |
| CC1(C)C[C@@](C)(c2cncc(NC(=O)c3ncc(C(F)(F)F)cc3Cl)c2)N=C(N)S1 [Compound 575] | ≤ 1000 nM |  |
| COCCOc1cnc(C(=O)Nc2cccc([C@]3(C)CCSC(N)=N3)c2)cn1 [Compound 70] |  | IC50 (Table 139, read-out: IC50): 90 nM |
| C[C@@]1(c2cccc(NC(=O)c3cnc(C(N)=O)cn3)c2)CCSC(N)=N1 [Compound 68] | ≤ 1000 nM |  |
| COc1cnc(C(=O)Nc2ccc(F)c([C@@]3(C)N=C(N)SCC3=O)c2)cn1 [Compound 689] |  | IC50 (Table 141, read-out: IC50): 40 nM |
| C[C@@]1(c2cc(NC(=O)c3cnc(-c4ccco4)cn3)ccc2F)CCSC(N)=N1 [Compound 136] |  | IC50 (Table 139, read-out: IC50): 110 nM |

| SMILES | IC50 [1] | further results |
| --- | --- | --- |
| CCOc1cnc(C(=O)Nc2ccc(F)c([C@]3(C)CCSC(N)=N3)c2)c(OCC)c1 [Compound 528] | ≤ 1000 nM |  |
| C[C@@]1(c2cc(NC(=O)c3ccc(Br)s3)ccc2F)CCSC(N)=N1 [Compound 41] |  | IC50 (Table 139, read-out: IC50): 150 nM |
| Cc1cscc1-c1cnc(C(=O)Nc2ccc(F)c([C@]3(C)CCSC(N)=N3)c2)cn1 [Compound 541] | ≤ 1000 nM |  |
| C[C@@]1(c2cncc(NC(=O)c3ccc(Cl)cn3)n2)CCSC(N)=N1 [Compound 581] | ≤ 1000 nM |  |
| CC1(C)C[C@@](C)(c2cc(NC(=O)c3ncc(C(F)(F)F)cc3Cl)ccc2F)N=C(N)S1 [Compound 644] | ≤ 1000 nM |  |
| C=CCCOc1cnc(C(=O)Nc2cccc([C@]3(C)CCSC(N)=N3)c2)cn1 [Compound 86] |  | IC50 (Table 139, read-out: IC50): 190 nM |
| CC1(C)C[C@@](C)(c2cc(NC(=O)c3cnc(OCCF)cn3)ccc2F)N=C(N)S1 [Compound 605] | ≤ 1000 nM |  |
| C/C=C/COc1ccc(C(=O)Nc2cccc([C@]3(C)CCSC(N)=N3)c2)nc1 [Compound 34] |  | IC50 (Table 139, read-out: IC50): 100 nM |
| Cc1nc(C(=O)Nc2ccc(F)c([C@]3(C)CCSC(N)=N3)c2)cs1 [Compound 505] |  | IC50 (Table 140, read-out: IC50): 30 nM |
| CSc1ccc(C(=O)Nc2cncc([C@]3(C)CCSC(N)=N3)c2)s1 [Compound 493] | ≤ 1000 nM |  |
| COc1cnc(C(=O)Nc2ccnc([C@]3(C)CC(C)(C)SC(N)=N3)c2)cn1 [Compound 637] | ≤ 1000 nM |  |
| Cc1cn2cc(C(=O)Nc3ccc(F)c([C@]4(C)CCSC(N)=N4)c3)ncc2n1 [Compound 652] |  | IC50 (Table 141, read-out: IC50): 60 nM |
| Cn1ccnc1C(=O)Nc1ccc(F)c([C@]2(C)CCSC(N)=N2)c1 [Compound 553] | ≤ 1000 nM |  |
| C[C@@]1(c2cc(NC(=O)c3cnc4ccccc4n3)ccc2F)CCSC(N)=N1 [Compound 666] | ≤ 1000 nM |  |
| Cc1cnc(C(=O)Nc2cccc([C@]3(C)CCSC(N)=N3)c2)cn1 [Compound 563] |  | IC50 (Table 140, read-out: IC50): 20 nM |
| CC#CCOc1cnc(C(=O)Nc2cncc([C@]3(C)CCSC(N)=N3)c2)cn1 [Compound 595] | ≤ 1000 nM |  |
| COc1cnc(C(=O)Nc2ccc(F)c([C@@]3(C)N=C(N)SCC3(F)F)c2)cn1 [Compound 673] | ≤ 1000 nM |  |
| CCCCOc1cnc(C(=O)Nc2cccc(C3(C)CCSC(N)=N3)c2)cn1 (stereo not drawn) [Compound 71] |  | IC50 (Table 139, read-out: IC50): 160 nM |
| CC1(C)C[C@@](C)(c2cc(NC(=O)c3ccc(C#N)cn3)ccn2)N=C(N)S1 [Compound 696] | ≤ 1000 nM |  |
| C[C@@]1(c2cc(NC(=O)c3ccc(OC(F)F)cn3)ccc2F)CCSC(N)=N1 [Compound 135] | ≤ 1000 nM |  |
| C[C@@]1(c2cncc(NC(=O)c3ccc(Br)s3)c2)CCSC(N)=N1 [Compound 514] |  | IC50 (Table 140, read-out: IC50): 240 nM |
| Cc1cc(C(=O)Nc2cncc([C@]3(C)CCSC(N)=N3)c2)n(C(C)(C)C)n1 [Compound 466] | ≤ 1000 nM |  |
| C[C@@]1(c2cc(NC(=O)c3cnc(-c4nccs4)cn3)ccc2F)CCSC(N)=N1 [Compound 519] | ≤ 1000 nM |  |
| COc1ccc(NC(=O)c2cnc(C)cn2)cc1[C@]1(C)CCSC(N)=N1 [Compound 32] | ≤ 1000 nM |  |
| CC#CCOc1cnc(C(=O)Nc2cccc(C3CCSC(N)=N3)c2)cn1 (stereo not drawn) [Compound 107] | ≤ 1000 nM |  |
| C[C@@]1(c2cncc(NC(=O)c3ccc(Cl)cn3)c2)CCSC(N)=N1 [Compound 152] | ≤ 1000 nM |  |
| COc1cnc(C(=O)Nc2cncc([C@]3(C)CCSC(N)=N3)c2)c(N)n1 [Compound 555] | ≤ 1000 nM |  |

| SMILES | IC50 [1] | further results |
| --- | --- | --- |
| C[C@@]1(c2cccc(NC(=O)c3ccc(OCCF)cn3)c2)CCSC(N)=N1 [Compound 97] | ≤ 1000 nM |  |
| COc1cnc(C(=O)Nc2ccc(F)c([C@@]3(C)N=C(N)SCC34CC4)c2)cn1 [Compound 675] | ≤ 1000 nM |  |
| CC(C)=CCOc1ccc(C(=O)Nc2cccc([C@]3(C)CCSC(N)=N3)c2)nc1 [Compound 98] | ≤ 1000 nM |  |
| COc1cnc(C(=O)Nc2ccc(F)c([C@]3(C)CCSC(N)=N3)c2)c(N)n1 [Compound 603] | ≤ 1000 nM |  |
| CCCCc1ccc(C(=O)Nc2ccc(F)c([C@@]3(C)N=C(N)SCC3(F)F)c2)nc1 [Compound 665] |  | IC50 (Table 141, read-out: IC50): 870 nM |
| CCC/C=C/c1cnc(C(=O)Nc2ccc(F)c([C@]3(C)CCSC(N)=N3)c2)cn1 [Compound 124] | ≤ 1000 nM |  |
| C[C@@]1(c2cccc(NC(=O)c3cnc(OCC(F)F)cn3)c2)CCSC(N)=N1 [Compound 92] |  | IC50 (Table 139, read-out: IC50): 80 nM |
| CCCOc1cnc(C(=O)Nc2cccc([C@]3(C)CCSC(N)=N3)c2)cn1 [Compound 72] |  | IC50 (Table 139, read-out: IC50): 110 nM |
| Cc1cc(C(=O)Nc2cccc([C@]3(C)CCSC(N)=N3)c2)c(C)o1 [Compound 3] |  | IC50 (Table 139, read-out: IC50): 80 nM |
| Cc1nc(Br)sc1C(=O)Nc1cncc([C@]2(C)CCSC(N)=N2)c1 [Compound 497] |  | IC50 (Table 140, read-out: IC50): 90 nM |
| Cc1cnc(C(=O)Nc2cccc([C@]3(C)CCSC(N)=N3)n2)cn1 [Compound 594] |  | IC50 (Table 140, read-out: IC50): 170 nM |
| COCCOc1ccc(C(=O)Nc2cccc([C@]3(C)CCSC(N)=N3)c2)nc1 [Compound 95] | ≤ 1000 nM |  |
| C#CCOc1cnc(C(=O)Nc2ccnc([C@]3(C)CCSC(N)=N3)c2)cn1 [Compound 659] | ≤ 1000 nM |  |
| Cc1cc(C(=O)Nc2cccc([C@]3(C)CCSC(N)=N3)c2)[nH]n1 [Compound 5] | ≤ 1000 nM |  |
| COc1cnc(C(=O)Nc2ccc(F)c([C@@]3(C)N=C(N)SCC3(C)C)c2)cn1 [Compound 647] | ≤ 1000 nM |  |
| C[C@@]1(c2cccc(NC(=O)c3cnc(OCc4ccccc4)cn3)c2)CCSC(N)=N1 [Compound 101] |  | IC50 (Table 139, read-out: IC50): 80 nM |
| COc1cnc(C(=O)Nc2ccnc([C@]3(C)CC(C)(C)SC(N)=N3)c2)c(N)n1 [Compound 688] | ≤ 1000 nM |  |
| COc1cc(C(=O)Nc2ccc(F)c([C@]3(C)CCSC(N)=N3)c2)on1 [Compound 22] | ≤ 1000 nM |  |
| C=Cc1cnc(C(=O)Nc2cccc([C@]3(C)CCSC(N)=N3)c2)cn1 [Compound 66] |  | IC50 (Table 139, read-out: IC50): 150 nM |
| C[C@@]1(c2cc(NC(=O)C3=NNC(=O)CC3)ccc2F)CCSC(N)=N1 [Compound 472] | ≤ 1000 nM |  |
| C#CCOc1cnc(C(=O)Nc2cncc([C@]3(C)CCSC(N)=N3)c2)cn1 [Compound 556] | ≤ 1000 nM |  |
| C[C@@]1(c2cc(NC(=O)CSc3nccc(O)n3)ccc2F)CCSC(N)=N1 [Compound 163] |  | IC50 (Table 139, read-out: IC50): 6790 nM |
| C[C@@]1(c2cccc(NC(=O)c3ccc(OCc4ccc(F)cc4)cn3)c2)CCSC(N)=N1 [Compound 111] |  | IC50 (Table 139, read-out: IC50): 180 nM |
| C[C@@]1(c2cccc(NC(=O)c3nccnc3Cl)c2)CCSC(N)=N1 [Compound 59] | ≤ 1000 nM |  |
| Cc1cnc(C(=O)Nc2ccnc([C@]3(C)CCSC(N)=N3)c2)cn1 [Compound 551] |  | IC50 (Table 140, read-out: IC50): 20 nM |
